Test results: patent publication US20110028566A1, “COMPOSITIONS AND PRODUCTS CONTAINING CYCLOALIPHATIC DIOL ANTIMICROBIAL AGENTS AND METHODS OF USING THE COMPOSITIONS AND PRODUCTS” (EASTMAN CHEMICAL COMPANY, priority 2009, published 2011)

Tests used:
Assay in all cases: Microbial challenge testing in BPW
Assay type in all cases: cell-based
[1] = tested on: Streptococcus mutans
Summary of the method: (§1)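 Bacteria, including ATCC and wild-type isolates from chemical products, were grown in tryptose soy broth with 1% dextrose for at least 96 hours. Inoculum was sized by plate count and turbidity (NTU) and added to test-material substrates to give 10^5 to 10^6 cfu/mL initially. Incubation ran 14 days at 35° C., then at room temperature.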

[2] = tested on: Escherichia coli
Summary of the method: as §1

[3] = tested on: Staphylococcus epidermidis
Summary of the method: as §1

[4] = tested on: Proteus vulgaris
Summary of the method: as §1

[5] = tested on: Bacillus subtilis
Summary of the method: as §1

[6] = tested on: Aeromonas sp.
Summary of the method: as §1

[7] = tested on: Staphylococcus aureus
Summary of the method: as §1

[8] = tested on: Pseudomonas aeruginosa
Summary of the method: as §1

[9] = tested on: Burkholderia cepacia
Summary of the method: as §1

## CC1(C)C(O)C(C)(C)C1O (stereo not drawn) [TMCD, 2,2,4,4-tetramethyl-1,3-cyclobutanediol]
[1]; 0.5%, 3 days incubation
  Grade code S. mutans: 4 (1001 to 10,000 colonies (thus 10,000 cfu/mL to 100,000 cfu/mL))
[1]; 0.5%, 13 days incubation
  Grade code S. mutans: 4 (1001 to 10,000 colonies (thus 10,000 cfu/mL to 100,000 cfu/mL))
[1]; 0.5%, 30 days incubation
  Grade code S. mutans: 4 (1001 to 10,000 colonies (thus 10,000 cfu/mL to 100,000 cfu/mL))
[1]; 1.25%, 3 days incubation
  Grade code S. mutans: 4 (1001 to 10,000 colonies (thus 10,000 cfu/mL to 100,000 cfu/mL))
[1]; 1.25%, 13 days incubation
  Grade code S. mutans: 4 (1001 to 10,000 colonies (thus 10,000 cfu/mL to 100,000 cfu/mL))
[1]; 1.25%, 30 days incubation
  Grade code S. mutans: 4 (1001 to 10,000 colonies (thus 10,000 cfu/mL to 100,000 cfu/mL))
[1]; 2.5%, 3 days incubation
  Grade code S. mutans: 3 (101 to 1000 colonies (thus 1000 to 10,000 cfu/mL))
[1]; 2.5%, 13 days incubation
  Grade code S. mutans: 1 (1 to 51 colonies counted (thus 10 to 510 cfu/mL))
[1]; 2.5%, 30 days incubation
  Grade code S. mutans: 0 (No growth detected or <1 colony (thus <10 cfu/mL))
[2]; 0.5%, 3 days incubation
  Grade code E. coli: 5 (More than 10,000 colonies estimated (thus >100,000 cfu/mL))
[2]; 0.5%, 14 days incubation
  Grade code E. coli: 4 (1001 to 10,000 colonies (thus 10,000 cfu/mL to 100,000 cfu/mL))
[2]; 0.5%, 30 days incubation
  Grade code E. coli: 4 (1001 to 10,000 colonies (thus 10,000 cfu/mL to 100,000 cfu/mL))
[2]; 1.25%, 3 days incubation
  Grade code E. coli: 4 (1001 to 10,000 colonies (thus 10,000 cfu/mL to 100,000 cfu/mL))
[2]; 1.25%, 14 days incubation
  Grade code E. coli: 4 (1001 to 10,000 colonies (thus 10,000 cfu/mL to 100,000 cfu/mL))
[2]; 1.25%, 30 days incubation
  Grade code E. coli: 4 (1001 to 10,000 colonies (thus 10,000 cfu/mL to 100,000 cfu/mL))
[2]; 2.5%, 3 days incubation
  Grade code E. coli: 4 (1001 to 10,000 colonies (thus 10,000 cfu/mL to 100,000 cfu/mL))
[2]; 2.5%, 14 days incubation
  Grade code E. coli: 4 (1001 to 10,000 colonies (thus 10,000 cfu/mL to 100,000 cfu/mL))
[2]; 2.5%, 30 days incubation
  Grade code E. coli: 4 (1001 to 10,000 colonies (thus 10,000 cfu/mL to 100,000 cfu/mL))
[3]; 0.5%, 3 days incubation
  Grade code S. epidermidis: 4 (1001 to 10,000 colonies (thus 10,000 cfu/mL to 100,000 cfu/mL))
[3]; 0.5%, 13 days incubation
  Grade code S. epidermidis: 4 (1001 to 10,000 colonies (thus 10,000 cfu/mL to 100,000 cfu/mL))
[3]; 0.5%, 30 days incubation
  Grade code S. epidermidis: 4 (1001 to 10,000 colonies (thus 10,000 cfu/mL to 100,000 cfu/mL))
[3]; 1.25%, 3 days incubation
  Grade code S. epidermidis: 2 (52 to 100 colonies counted (thus 520 to 1000 cfu/mL))
[3]; 1.25%, 13 days incubation
  Grade code S. epidermidis: 3 (101 to 1000 colonies (thus 1000 to 10,000 cfu/mL))
[3]; 1.25%, 30 days incubation
  Grade code S. epidermidis: 4 (1001 to 10,000 colonies (thus 10,000 cfu/mL to 100,000 cfu/mL))
[3]; 2.5%, 3 days incubation
  Grade code S. epidermidis: 2 (52 to 100 colonies counted (thus 520 to 1000 cfu/mL))
[3]; 2.5%, 13 days incubation
  Grade code S. epidermidis: 2 (52 to 100 colonies counted (thus 520 to 1000 cfu/mL))
[3]; 2.5%, 30 days incubation
  Grade code S. epidermidis: 2 (52 to 100 colonies counted (thus 520 to 1000 cfu/mL))
[4]; 0.5%, 3 days incubation
  Grade code P. vulqaris: 4 (1001 to 10,000 colonies (thus 10,000 cfu/mL to 100,000 cfu/mL))
[4]; 0.5%, 13 days incubation
  Grade code P. vulqaris: 4 (1001 to 10,000 colonies (thus 10,000 cfu/mL to 100,000 cfu/mL))
[4]; 0.5%, 30 days incubation
  Grade code P. vulqaris: 4 (1001 to 10,000 colonies (thus 10,000 cfu/mL to 100,000 cfu/mL))
[4]; 1.25%, 3 days incubation
  Grade code P. vulqaris: 3 (101 to 1000 colonies (thus 1000 to 10,000 cfu/mL))
[4]; 1.25%, 13 days incubation
  Grade code P. vulqaris: 2 (52 to 100 colonies counted (thus 520 to 1000 cfu/mL))
[4]; 1.25%, 30 days incubation
  Grade code P. vulqaris: 0 (No growth detected or <1 colony (thus <10 cfu/mL))
[4]; 2.5%, 3 days incubation
  Grade code P. vulqaris: 4 (1001 to 10,000 colonies (thus 10,000 cfu/mL to 100,000 cfu/mL))
[4]; 2.5%, 13 days incubation
  Grade code P. vulqaris: 1 (1 to 51 colonies counted (thus 10 to 510 cfu/mL))
[4]; 2.5%, 30 days incubation
  Grade code P. vulqaris: 0 (No growth detected or <1 colony (thus <10 cfu/mL))
[5]; 0.5%, 3 days incubation
  Grade code B. subtilis: 4 (1001 to 10,000 colonies (thus 10,000 cfu/mL to 100,000 cfu/mL))
[5]; 0.5%, 14 days incubation
  Grade code B. subtilis: 4 (1001 to 10,000 colonies (thus 10,000 cfu/mL to 100,000 cfu/mL))
[5]; 0.5%, 30 days incubation
  Grade code B. subtilis: 4 (1001 to 10,000 colonies (thus 10,000 cfu/mL to 100,000 cfu/mL))
[5]; 1.25%, 3 days incubation
  Grade code B. subtilis: 4 (1001 to 10,000 colonies (thus 10,000 cfu/mL to 100,000 cfu/mL))
[5]; 1.25%, 14 days incubation
  Grade code B. subtilis: 4 (1001 to 10,000 colonies (thus 10,000 cfu/mL to 100,000 cfu/mL))
[5]; 1.25%, 30 days incubation
  Grade code B. subtilis: 4 (1001 to 10,000 colonies (thus 10,000 cfu/mL to 100,000 cfu/mL))
[5]; 2.5%, 3 days incubation
  Grade code B. subtilis: 4 (1001 to 10,000 colonies (thus 10,000 cfu/mL to 100,000 cfu/mL))
[5]; 2.5%, 14 days incubation
  Grade code B. subtilis: 4 (1001 to 10,000 colonies (thus 10,000 cfu/mL to 100,000 cfu/mL))
[5]; 2.5%, 30 days incubation
  Grade code B. subtilis: 4 (1001 to 10,000 colonies (thus 10,000 cfu/mL to 100,000 cfu/mL))
[6]; 0.5%, 3 days incubation
  Grade code Aeromonas sp: 5 (More than 10,000 colonies estimated (thus >100,000 cfu/mL))
[6]; 0.5%, 14 days incubation
  Grade code Aeromonas sp: 4 (1001 to 10,000 colonies (thus 10,000 cfu/mL to 100,000 cfu/mL))
[6]; 0.5%, 30 days incubation
  Grade code Aeromonas sp: 4 (1001 to 10,000 colonies (thus 10,000 cfu/mL to 100,000 cfu/mL))
[6]; 1.25%, 3 days incubation
  Grade code Aeromonas sp: 4 (1001 to 10,000 colonies (thus 10,000 cfu/mL to 100,000 cfu/mL))
[6]; 1.25%, 14 days incubation
  Grade code Aeromonas sp: 4 (1001 to 10,000 colonies (thus 10,000 cfu/mL to 100,000 cfu/mL))
[6]; 1.25%, 30 days incubation
  Grade code Aeromonas sp: 4 (1001 to 10,000 colonies (thus 10,000 cfu/mL to 100,000 cfu/mL))
[6]; 2.5%, 3 days incubation
  Grade code Aeromonas sp: 4 (1001 to 10,000 colonies (thus 10,000 cfu/mL to 100,000 cfu/mL))
[6]; 2.5%, 14 days incubation
  Grade code Aeromonas sp: 2 (52 to 100 colonies counted (thus 520 to 1000 cfu/mL))
[6]; 2.5%, 30 days incubation
  Grade code Aeromonas sp: 3 (101 to 1000 colonies (thus 1000 to 10,000 cfu/mL))
[7]; 0.5%, 3 days incubation
  Grade code S. aureus: 4 (1001 to 10,000 colonies (thus 10,000 cfu/mL to 100,000 cfu/mL))
[7]; 0.5%, 14 days incubation
  Grade code S. aureus: 4 (1001 to 10,000 colonies (thus 10,000 cfu/mL to 100,000 cfu/mL))
[7]; 0.5%, 30 days incubation
  Grade code S. aureus: 4 (1001 to 10,000 colonies (thus 10,000 cfu/mL to 100,000 cfu/mL))
[7]; 1.25%, 3 days incubation
  Grade code S. aureus: 4 (1001 to 10,000 colonies (thus 10,000 cfu/mL to 100,000 cfu/mL))
[7]; 1.25%, 14 days incubation
  Grade code S. aureus: 4 (1001 to 10,000 colonies (thus 10,000 cfu/mL to 100,000 cfu/mL))
[7]; 1.25%, 30 days incubation
  Grade code S. aureus: 4 (1001 to 10,000 colonies (thus 10,000 cfu/mL to 100,000 cfu/mL))
[7]; 2.5%, 3 days incubation
  Grade code S. aureus: 2 (52 to 100 colonies counted (thus 520 to 1000 cfu/mL))
[7]; 2.5%, 14 days incubation
  Grade code S. aureus: 1 (1 to 51 colonies counted (thus 10 to 510 cfu/mL))
[7]; 2.5%, 30 days incubation
  Grade code S. aureus: 1 (1 to 51 colonies counted (thus 10 to 510 cfu/mL))
[8]; 0.5%, 3 days incubation
  Grade code P. aeruginosa: 4 (1001 to 10,000 colonies (thus 10,000 cfu/mL to 100,000 cfu/mL))
[8]; 0.5%, 13 days incubation
  Grade code P. aeruginosa: 4 (1001 to 10,000 colonies (thus 10,000 cfu/mL to 100,000 cfu/mL))
[8]; 0.5%, 30 days incubation
  Grade code P. aeruginosa: 4 (1001 to 10,000 colonies (thus 10,000 cfu/mL to 100,000 cfu/mL))
[8]; 1.25%, 3 days incubation
  Grade code P. aeruginosa: 4 (1001 to 10,000 colonies (thus 10,000 cfu/mL to 100,000 cfu/mL))
[8]; 1.25%, 13 days incubation
  Grade code P. aeruginosa: 4 (1001 to 10,000 colonies (thus 10,000 cfu/mL to 100,000 cfu/mL))
[8]; 1.25%, 30 days incubation
  Grade code P. aeruginosa: 4 (1001 to 10,000 colonies (thus 10,000 cfu/mL to 100,000 cfu/mL))
[8]; 2.5%, 3 days incubation
  Grade code P. aeruginosa: 4 (1001 to 10,000 colonies (thus 10,000 cfu/mL to 100,000 cfu/mL))
[8]; 2.5%, 13 days incubation
  Grade code P. aeruginosa: 3 (101 to 1000 colonies (thus 1000 to 10,000 cfu/mL))
[8]; 2.5%, 30 days incubation
  Grade code P. aeruginosa: 4 (1001 to 10,000 colonies (thus 10,000 cfu/mL to 100,000 cfu/mL))
[9]; 0.5%, 3 days incubation
  Grade code B. cepacia: 4 (1001 to 10,000 colonies (thus 10,000 cfu/mL to 100,000 cfu/mL))
[9]; 0.5%, 14 days incubation
  Grade code B. cepacia: 4 (1001 to 10,000 colonies (thus 10,000 cfu/mL to 100,000 cfu/mL))
[9]; 0.5%, 30 days incubation
  Grade code B. cepacia: 4 (1001 to 10,000 colonies (thus 10,000 cfu/mL to 100,000 cfu/mL))
[9]; 1.25%, 3 days incubation
  Grade code B. cepacia: 3 (101 to 1000 colonies (thus 1000 to 10,000 cfu/mL))
[9]; 1.25%, 14 days incubation
  Grade code B. cepacia: 2 (52 to 100 colonies counted (thus 520 to 1000 cfu/mL))
[9]; 1.25%, 30 days incubation
  Grade code B. cepacia: 4 (1001 to 10,000 colonies (thus 10,000 cfu/mL to 100,000 cfu/mL))
[9]; 2.5%, 3 days incubation
  Grade code B. cepacia: 1 (1 to 51 colonies counted (thus 10 to 510 cfu/mL))
[9]; 2.5%, 14 days incubation
  Grade code B. cepacia: 0 (No growth detected or <1 colony (thus <10 cfu/mL))
[9]; 2.5%, 30 days incubation
  Grade code B. cepacia: 0 (No growth detected or <1 colony (thus <10 cfu/mL))
